Source: the supplement of paper PMC10307832

Experiments:
Test in all cases: relative viability (nuclei count vs DMSO), 5 days (fraction); higher = more cells survive
[1] = tested on: LK-2
How it was run: (§1)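 Lung cancer cell lines were pin-tool dosed in 1536-well plates on the day after seeding, with either a lone drug or a fixed anchor-drug dose plus five library-drug doses (not always all listed) in √10 steps. Nuclei were counted on 4× images after 5 days. Relative viability is the ratio of treated-well to vehicle-well nuclei counts, with each value a median of duplicate plates.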

[2] = tested on: NCI-H1792
How it was run: as §1

[3] = tested on: EMC-BAC-2
How it was run: as §1

[4] = tested on: SW 1573
How it was run: as §1

[5] = tested on: SK-LU-1
How it was run: as §1

[6] = tested on: NCI-H727
How it was run: as §1

[7] = tested on: HOP-62
How it was run: as §1

[8] = tested on: NCI-H2009
How it was run: as §1

[9] = tested on: NCI-H3122
How it was run: as §1

[10] = tested on: NCI-H596
How it was run: as §1

[11] = tested on: NCI-H2228
How it was run: as §1

[12] = tested on: LXF-289
How it was run: as §1

[13] = tested on: LU99A
How it was run: as §1

[14] = tested on: A-427
How it was run: as §1

[15] = tested on: SK-MES-1
How it was run: as §1

[16] = tested on: NCI-H1793
How it was run: as §1

[17] = tested on: NCI-H1944
How it was run: as §1

[18] = tested on: SW 900
How it was run: as §1

[19] = tested on: COR-L23
How it was run: as §1

[20] = tested on: ABC-1
How it was run: as §1

[21] = tested on: NCI-H1993
How it was run: as §1

[22] = tested on: PC-3 [JPC-3]
How it was run: as §1

[23] = tested on: HARA
How it was run: as §1

[24] = tested on: NCI-H2170
How it was run: as §1

C[C@@H]1CN(CC(=O)Nc2ccc3c(c2)Cc2cccc(-c4cc(=O)cc(N5CCOCC5)o4)c2S3)C[C@H](C)O1 + COc1cccc2cc(-c3nc([C@H]4CC[C@H](C(=O)O)CC4)n4ncnc(N)c34)[nH]c12 [OSI-027] (partner 0.5 µM)
relative viability ([1]; first compound 0.04 µM): 0.196 | relative viability ([1]; first compound 0.1265 µM): 0.207 | relative viability ([1]; first compound 0.4 µM): 0.162 | relative viability ([1]; first compound 4 µM): 0.257 | relative viability ([2]; first compound 0.04 µM): 0.692 | relative viability ([2]; first compound 0.1265 µM): 0.639 | relative viability ([2]; first compound 0.4 µM): 0.633 | relative viability ([2]; first compound 4 µM): 0.458 | relative viability ([3]; first compound 0.04 µM): 0.392 | relative viability ([3]; first compound 0.1265 µM): 0.429 | relative viability ([3]; first compound 0.4 µM): 0.385 | relative viability ([3]; first compound 4 µM): 0.39 | relative viability ([4]; first compound 0.04 µM): 0.796 | relative viability ([4]; first compound 0.1265 µM): 0.72 | relative viability ([4]; first compound 0.4 µM): 0.465 | relative viability ([4]; first compound 4 µM): 0.604 | relative viability ([5]; first compound 0.04 µM): 0.393 | relative viability ([5]; first compound 0.1265 µM): 0.4 | relative viability ([5]; first compound 0.4 µM): 0.386 | relative viability ([5]; first compound 4 µM): 0.237 | relative viability ([6]; first compound 0.04 µM): 0.546 | relative viability ([6]; first compound 0.1265 µM): 0.485 | relative viability ([6]; first compound 0.4 µM): 0.537 | relative viability ([6]; first compound 4 µM): 0.656 | relative viability ([7]; first compound 0.04 µM): 0.828 | relative viability ([7]; first compound 0.1265 µM): 0.797 | relative viability ([7]; first compound 0.4 µM): 0.763 | relative viability ([7]; first compound 4 µM): 0.881 | relative viability ([8]; first compound 0.04 µM): 0.712 | relative viability ([8]; first compound 0.1265 µM): 0.648 | relative viability ([8]; first compound 0.4 µM): 0.613 | relative viability ([8]; first compound 4 µM): 0.448 | relative viability ([9]; first compound 0.04 µM): 0.994 | relative viability ([9]; first compound 0.1265 µM): 0.901 | relative viability ([9]; first compound 0.4 µM): 0.206 | relative viability ([9]; first compound 4 µM): 0.668 | relative viability ([10]; first compound 0.04 µM): 0.899 | relative viability ([10]; first compound 0.1265 µM): 0.931 | relative viability ([10]; first compound 0.4 µM): 0.537 | relative viability ([10]; first compound 4 µM): 0.549 | relative viability ([11]; first compound 0.04 µM): 0.659 | relative viability ([11]; first compound 0.1265 µM): 0.705 | relative viability ([11]; first compound 0.4 µM): 0.483 | relative viability ([11]; first compound 4 µM): 0.335 | relative viability ([12]; first compound 0.04 µM): 0.779 | relative viability ([12]; first compound 0.1265 µM): 0.829 | relative viability ([12]; first compound 0.4 µM): 0.86 | relative viability ([12]; first compound 4 µM): 0.777 | relative viability ([13]; first compound 0.04 µM): 0.282 | relative viability ([13]; first compound 0.1265 µM): 0.34 | relative viability ([13]; first compound 0.4 µM): 0.299 | relative viability ([13]; first compound 4 µM): 0.374 | relative viability ([14]; first compound 0.04 µM): 0.501 | relative viability ([14]; first compound 0.1265 µM): 0.53 | relative viability ([14]; first compound 0.4 µM): 0.482 | relative viability ([14]; first compound 4 µM): 0.575 | relative viability ([15]; first compound 0.04 µM): 0.664 | relative viability ([15]; first compound 0.1265 µM): 0.566 | relative viability ([15]; first compound 0.4 µM): 0.503 | relative viability ([15]; first compound 4 µM): 0.49 | relative viability ([16]; first compound 0.04 µM): 0.256 | relative viability ([16]; first compound 0.1265 µM): 0.272 | relative viability ([16]; first compound 0.4 µM): 0.247 | relative viability ([16]; first compound 4 µM): 0.149 | relative viability ([17]; first compound 0.04 µM): 0.386 | relative viability ([17]; first compound 0.1265 µM): 0.475 | relative viability ([17]; first compound 0.4 µM): 0.389 | relative viability ([17]; first compound 4 µM): 0.336 | relative viability ([18]; first compound 0.04 µM): 0.455 | relative viability ([18]; first compound 0.1265 µM): 0.573 | relative viability ([18]; first compound 0.4 µM): 0.647 | relative viability ([18]; first compound 4 µM): 0.45 | relative viability ([19]; first compound 0.04 µM): 0.782 | relative viability ([19]; first compound 0.1265 µM): 0.776 | relative viability ([19]; first compound 0.4 µM): 0.73 | relative viability ([19]; first compound 4 µM): 0.717 | relative viability ([20]; first compound 0.1265 µM): 0.541 | relative viability ([20]; first compound 0.4 µM): 0.466 | relative viability ([20]; first compound 4 µM): 0.439 | relative viability ([21]; first compound 0.04 µM): 0.578 | relative viability ([21]; first compound 0.1265 µM): 0.603 | relative viability ([21]; first compound 0.4 µM): 0.597 | relative viability ([21]; first compound 4 µM): 0.551 | relative viability ([22]; first compound 0.04 µM): 0.81 | relative viability ([22]; first compound 0.1265 µM): 0.815 | relative viability ([22]; first compound 0.4 µM): 0.66 | relative viability ([22]; first compound 4 µM): 0.577 | relative viability ([23]; first compound 0.1265 µM): 0.499 | relative viability ([23]; first compound 0.4 µM): 0.251 | relative viability ([23]; first compound 4 µM): 0.412 | relative viability ([24]; first compound 0.04 µM): 0.712 | relative viability ([24]; first compound 0.1265 µM): 0.685 | relative viability ([24]; first compound 0.4 µM): 0.581 | relative viability ([24]; first compound 4 µM): 0.707

CC(C)Oc1cc(Nc2nc(N[C@@H](C)c3ccc(F)cn3)ncc2Cl)n[nH]1 [AZ23] + CC(=O)c1c(C)c2cnc(Nc3ccc(N4CCNCC4)cn3)nc2n(C2CCCC2)c1=O [Palbociclib] (partner 0.5 µM)
relative viability ([1]; first compound 0.03162 µM): 0.544 | relative viability ([1]; first compound 0.3162 µM): 0.678 | relative viability ([2]; first compound 0.01 µM): 0.737 | relative viability ([2]; first compound 0.03162 µM): 0.617 | relative viability ([2]; first compound 0.3162 µM): 0.645 | relative viability ([3]; first compound 0.01 µM): 0.527 | relative viability ([3]; first compound 0.03162 µM): 0.523 | relative viability ([3]; first compound 0.3162 µM): 0.52 | relative viability ([4]; first compound 0.01 µM): 0.58 | relative viability ([4]; first compound 0.03162 µM): 0.467 | relative viability ([4]; first compound 0.3162 µM): 0.394 | relative viability ([5]; first compound 0.03162 µM): 0.416 | relative viability ([5]; first compound 0.3162 µM): 0.414 | relative viability ([6]; first compound 0.01 µM): 0.59 | relative viability ([6]; first compound 0.03162 µM): 0.66 | relative viability ([6]; first compound 0.3162 µM): 0.619 | relative viability ([7]; first compound 0.01 µM): 0.507 | relative viability ([7]; first compound 0.03162 µM): 0.467 | relative viability ([7]; first compound 0.3162 µM): 0.437 | relative viability ([8]; first compound 0.01 µM): 0.2 | relative viability ([8]; first compound 0.03162 µM): 0.185 | relative viability ([8]; first compound 0.3162 µM): 0.196 | relative viability ([9]; first compound 0.01 µM): 0.197 | relative viability ([9]; first compound 0.03162 µM): 0.173 | relative viability ([9]; first compound 0.3162 µM): 0.23 | relative viability ([11]; first compound 0.01 µM): 0.809 | relative viability ([11]; first compound 0.03162 µM): 0.811 | relative viability ([11]; first compound 0.3162 µM): 0.907 | relative viability ([12]; first compound 0.01 µM): 0.739 | relative viability ([12]; first compound 0.03162 µM): 0.631 | relative viability ([12]; first compound 0.3162 µM): 0.534 | relative viability ([13]; first compound 0.01 µM): 0.39 | relative viability ([13]; first compound 0.03162 µM): 0.468 | relative viability ([13]; first compound 0.3162 µM): 0.371 | relative viability ([14]; first compound 0.01 µM): 0.459 | relative viability ([14]; first compound 0.03162 µM): 0.524 | relative viability ([14]; first compound 0.3162 µM): 0.586 | relative viability ([15]; first compound 0.03162 µM): 0.291 | relative viability ([15]; first compound 0.3162 µM): 0.328 | relative viability ([16]; first compound 0.01 µM): 0.347 | relative viability ([16]; first compound 0.03162 µM): 0.35 | relative viability ([16]; first compound 0.3162 µM): 0.247 | relative viability ([17]; first compound 0.01 µM): 0.304 | relative viability ([17]; first compound 0.03162 µM): 0.342 | relative viability ([17]; first compound 0.3162 µM): 0.278 | relative viability ([18]; first compound 0.01 µM): 0.653 | relative viability ([18]; first compound 0.3162 µM): 0.501 | relative viability ([19]; first compound 0.01 µM): 0.239 | relative viability ([19]; first compound 0.03162 µM): 0.301 | relative viability ([19]; first compound 0.3162 µM): 0.254 | relative viability ([20]; first compound 0.01 µM): 0.765 | relative viability ([20]; first compound 0.03162 µM): 0.82 | relative viability ([20]; first compound 0.3162 µM): 0.694 | relative viability ([21]; first compound 0.01 µM): 0.559 | relative viability ([21]; first compound 0.03162 µM): 0.695 | relative viability ([21]; first compound 0.3162 µM): 0.477 | relative viability ([22]; first compound 0.01 µM): 0.552 | relative viability ([22]; first compound 0.03162 µM): 0.611 | relative viability ([22]; first compound 0.3162 µM): 0.536 | relative viability ([23]; first compound 0.01 µM): 0.254 | relative viability ([23]; first compound 0.03162 µM): 0.156 | relative viability ([23]; first compound 0.3162 µM): 0.213 | relative viability ([24]; first compound 0.01 µM): 0.451 | relative viability ([24]; first compound 0.03162 µM): 0.645 | relative viability ([24]; first compound 0.3162 µM): 0.473
